Counter-ions that a name gives are not always drawn.
Key:
[1] = molecular target: T1, PIM1 serine/threonine kinase (Homo sapiens, UniProt P11309); test: PIM1 serine/threonine kinase inhibitory effect; assay type: biochemical; conditions: PIM1 serine/threonine kinase activity; ATP 40 μM; 30° C., 30 minutes
T1 construct: purchased Carna Bioscience, Inc
Method in brief: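 Recombinant PIM1 (0.15 μg/ml final) with 0.5 μM biotinylated substrate and 40 μM ATP in pH 7.0 HEPES/MgCl2 buffer, 30 min at 30° C. Compound range was 0.01–10000 nM final, n=2. HTRF detection with streptavidin-XL665 and anti-phospho antibody-cryptate, 1 h; IC50 from non-linear regression of the 665/620 ratio.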

[2] = molecular target: PIM1 transgenic cells (Ba/F3) (Homo sapiens, UniProt P11309); test: Proliferation inhibitory effect on PIM1 transgenic cells; assay type: cell-based, mouse; conditions: proliferation inhibition, 72 hours, Cell Counting Kit-8, read-out: PIM1 IC50
PIM1 transgenic cells (Ba/F3), sequence (P11309 whole entry, stated change not applied): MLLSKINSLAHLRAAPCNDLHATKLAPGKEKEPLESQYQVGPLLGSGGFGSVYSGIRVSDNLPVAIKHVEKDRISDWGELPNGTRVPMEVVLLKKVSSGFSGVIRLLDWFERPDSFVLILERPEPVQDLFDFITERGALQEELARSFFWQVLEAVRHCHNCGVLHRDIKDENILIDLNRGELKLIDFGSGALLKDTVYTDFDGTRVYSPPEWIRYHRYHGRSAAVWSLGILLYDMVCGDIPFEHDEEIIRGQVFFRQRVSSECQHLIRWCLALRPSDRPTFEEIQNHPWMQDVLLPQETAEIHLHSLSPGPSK
Method in brief: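 Mouse Ba/F3 pro-B cells were retrovirally transduced with human PIM1 so that their proliferation depends on PIM1. Cells were treated with compound at 1–10000 nM final for 72 h, then read by CCK-8 (OD450−OD650). Inhibition was set against DMSO (0%) and no-cell blank (100%), and IC50 was obtained by two-parameter logistic regression.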

T1 sequence (P11309 whole entry): as the sequence (P11309 whole entry, stated change not applied) above

SMILES	IC50 [1]	GI50 [2]
C[C@H](Nc1cc(-c2n[nH]c(=O)o2)cc(F)c1F)C1CCNCC1 [Example 89, 5-(3,4-difluoro-5-{[(1S)-1-(piperidin-4-yl)ethyl]amino}phenyl)-1,3,4-oxadiazol-2(3H)-one]	5.4 nM	250 nM
O=c1[nH]nc(-c2ccc(C(F)(F)F)c(NCC3(F)CCNCC3)c2)o1 [Example 108, 5-[3-{[(4-fluoropiperidin-4-yl)methyl]amino}-4-(trifluoromethyl)phenyl]-1,3,4-oxadiazol-2(3H)-one hydrochloride]	19 nM	270 nM
N[C@H]1CC[C@H](Nc2cc(-c3n[nH]c(=O)o3)ccc2Br)CC1 [Example 35, 5-(3-{[(1r,4r)-4-aminocyclohexyl]amino}-4-bromophenyl)-1,3,4-oxadiazol-2(3H)-one hydrochloride]	4.9 nM	510 nM
NCCCCCCNc1cc(-c2n[nH]c(=O)o2)ccc1C(F)(F)F [Example 4, 5-{3-[(6-aminohexyl)amino]-4-(trifluoromethyl)phenyl}-1,3,4-oxadiazol-2(3H)-one]	50 nM	3000 nM
O=c1[nH]nc(-c2ccc(C(F)(F)F)c(NCCC3CCCNC3)c2)o1 (stereo not shown) [Example 60, 5-[3-{[2-(piperidin-3-yl)ethyl]amino}-4-(trifluoromethyl)phenyl]-1,3,4-oxadiazol-2(3H)-one hydrochloride]	13 nM	3100 nM
O=c1[nH]nc(-c2ccc(Cl)c(NC3CCNCC3)c2)o1 [Example 31, 5-{4-chloro-3-[(piperidin-4-yl)amino]phenyl}-1,3,4-oxadiazol-2(3H)-one hydrochloride]	70 nM	3300 nM
C[C@H](Nc1cc(-c2n[nH]c(=O)o2)cc(C(F)(F)F)c1Cl)C1CCNCC1 [Example 101, 5-[4-chloro-3-{[(1S)-1-(piperidin-4-yl)ethyl]amino}-5-(trifluoromethyl)phenyl]-1,3,4-oxadiazol-2(3H)-one dihydrochloride]	2.1 nM	61 nM
C[C@H](Nc1cc(-c2n[nH]c(=O)o2)ccc1Br)C1CCNCC1 [Example 78, 5-(4-bromo-3-{[(1S)-1-(piperidin-4-yl)ethyl]amino}phenyl)-1,3,4-oxadiazol-2(3H)-one dihydrochloride]	3.3 nM	170 nM
N[C@H]1CC[C@H](CNc2cc(-c3n[nH]c(=O)o3)ccc2-c2ccccc2)CC1 [Example 71, 5-[2-({[(1r,4r)-4-aminocyclohexyl]methyl}amino)[1,1′-biphenyl]-4-yl]-1,3,4-oxadiazol-2(3H)-one hydrochloride]	140 nM	4200 nM
C[C@@H](Nc1cc(-c2n[nH]c(=O)o2)ccc1C(F)(F)F)[C@H]1CC[C@H](N)CC1 [Example 111, 5-[3-({(1R)-1-[(1r,4R)-4-aminocyclohexyl]ethyl}amino)-4-(trifluoromethyl)phenyl]-1,3,4-oxadiazol-2(3H)-one hydrochloride]	6.4 nM	140 nM
O=c1[nH]nc(-c2ccc(C(F)(F)F)c(NCCC3CCNCC3)c2)o1 [Example 64, 5-[3-{[2-(piperidin-4-yl)ethyl]amino}-4-(trifluoromethyl)phenyl]-1,3,4-oxadiazol-2(3H)-one hydrochloride]	9 nM	1300 nM
C[C@H](Nc1cc(-c2n[nH]c(=O)o2)cc(F)c1Cl)C1CCNCC1 [Example 76, 5-(4-chloro-3-fluoro-5-{[(1S)-1-(piperidin-4-yl)ethyl]amino}phenyl)-1,3,4-oxadiazol-2(3H)-one hydrochloride]	1.9 nM	31 nM
N[C@H]1CC[C@@H](CNc2cc(-c3n[nH]c(=O)o3)ccc2C(F)(F)F)CC1 [Example 74, 5-[3-({[(1s,4s)-4-aminocyclohexyl]methyl}amino)-4-(trifluoromethyl)phenyl]-1,3,4-oxadiazol-2(3H)-one hydrochloride]	2.2 nM	150 nM

The next lines start with the values.

IC50 [1]	GI50 [2]	SMILES
3.1 nM	40 nM	C[C@H](Nc1cc(-c2n[nH]c(=O)o2)ccc1C(F)(F)F)[C@H]1C[C@@H](N)C1(C)C [Example 153, 5-[3-({(1S)-1-[(1S,3R)-3-amino-2,2-dimethylcyclobutyl]ethyl}amino)-4-(trifluoromethyl)phenyl]-1,3,4-oxadiazol-2(3H)-one hydrochloride]
2.3 nM	26 nM	CC1(C)[C@H](CNc2cc(-c3n[nH]c(=O)o3)ccc2C(F)(F)F)C[C@@H]1N [Example 166, 5-[3-({[(1R,3S)-3-amino-2,2-dimethylcyclobutyl]methyl}amino)-4-(trifluoromethyl)phenyl]-1,3,4-oxadiazol-2(3H)-one hydrochloride]
2.9 nM	56 nM	C[C@H](Nc1cc(-c2n[nH]c(=O)o2)ccc1C(F)(F)F)[C@@H]1CC[C@@H](N)CO1 [Example 188, 5-[3-({(S)-1-[(2S,5R)-5-aminotetrahydro-2H-pyran-2-yl]ethyl}amino)-4-(trifluoromethyl)phenyl]-1,3,4-oxadiazol-2(3H)-one]
3.7 nM	45 nM	C[C@H](Nc1cc(-c2n[nH]c(=O)o2)ccc1Cl)[C@H]1CC[C@H](N)CC1 [Example 148, 5-[3-({(1S)-1-[(1r,4S)-4-aminocyclohexyl]ethyl}amino)-4-chlorophenyl]-1,3,4-oxadiazol-2(3H)-one hydrochloride]
17 nM	440 nM	CN[C@H]1CC[C@H](CN(C)c2cc(-c3n[nH]c(=O)o3)ccc2C(F)(F)F)CC1 [Example 132, 5-[3-(methyl{[(1r,4r)-4-(methylamino)cyclohexyl]methyl}amino)-4-(trifluoromethyl)phenyl]-1,3,4-oxadiazol-2(3H)-one hydrochloride]
2 nM	85 nM	C[C@H](Nc1cc(-c2n[nH]c(=O)o2)cc(F)c1OC(F)F)C1(C)CCNCC1 [Example 213, 5-[4-(difluoromethoxy)-3-fluoro-5-{[(1S)-1-(4-methylpiperidin-4-yl)ethyl]amino}phenyl]-1,3,4-oxadiazol-2(3H)-one]
5.7 nM	100 nM	O=c1[nH]nc(-c2ccc(C(F)(F)F)c(N[C@@H](CF)C3(F)CCNCC3)c2)o1 [Example 209, 5-[3-{[(1S)-2-fluoro-1-(4-fluoropiperidin-4-yl)ethyl]amino}-4-(trifluoromethyl)phenyl]-1,3,4-oxadiazol-2(3H)-one]
4.2 nM	110 nM	C[C@@H]([C@H]1CC[C@H](N)CC1)N1CCOc2c(F)cc(-c3n[nH]c(=O)o3)cc21 [Example 249, 5-(4-{(1S)-1-[(1r,4S)-4-aminocyclohexyl]ethyl}-8-fluoro-3,4-dihydro-2H-1,4-benzoxazin-6-yl)-1,3,4-oxadiazol-2(3H)-one]
6.5 nM	220 nM	CCC1(CNc2cc(-c3n[nH]c(=O)o3)ccc2C(F)(F)F)CCNCC1 [Example 122, 5-[3-{[(4-ethylpiperidin-4-yl)methyl]amino}-4-(trifluoromethyl)phenyl]-1,3,4-oxadiazol-2(3H)-one hydrochloride]
3.3 nM	57 nM	O=c1[nH]nc(-c2ccc(C(F)(F)F)c(N[C@@H](CF)C3CCNCC3)c2)o1 [Example 152, 5-[3-{[(1R)-2-fluoro-1-(piperidin-4-yl)ethyl]amino}-4-(trifluoromethyl)phenyl]-1,3,4-oxadiazol-2(3H)-one hydrochloride]
4.2 nM	3200 nM	C[C@@H]1CNCC[C@@H]1[C@H](C)N1CCC(=O)c2c(F)cc(-c3n[nH]c(=O)o3)cc21 [Example 245, 5-fluoro-1-{(1S)-1-[(3S,4S)-3-methylpiperidin-4-yl]ethyl}-7-(5-oxo-4,5-dihydro-1,3,4-oxadiazol-2-yl)-2,3-dihydroquinolin-4(1H)-one hydrochloride]
9.1 nM	380 nM	C[C@H](Nc1cc(-c2n[nH]c(=O)o2)ccc1C(F)(F)F)C1CC2(CNC2)C1 [Example 149, 5-[3-{[(1S)-1-(2-azaspiro[3.3]heptan-6-yl)ethyl]amino}-4-(trifluoromethyl)phenyl]-1,3,4-oxadiazol-2(3H)-one trifluoroacetate]
8.4 nM	300 nM	C[C@H](Nc1nc(-c2n[nH]c(=O)o2)ccc1C(F)(F)F)C1CCNCC1 [Example 114, 5-[6-{[(1S)-1-(piperidin-4-yl)ethyl]amino}-5-(trifluoromethyl)pyridin-2-yl]-1,3,4-oxadiazol-2(3H)-one hydrochloride hydrochloride]
2.4 nM	35 nM	C[C@H](Nc1cc(-c2n[nH]c(=O)o2)ccc1Br)[C@H]1CC[C@H](N)CC1 [Example 154, 5-[3-({(1S)-1-[(1r,4S)-4-aminocyclohexyl]ethyl}amino)-4-bromophenyl]-1,3,4-oxadiazol-2(3H)-one hydrochloride]
3.6 nM	54 nM	CN[C@H]1C[C@@H]([C@H](C)Nc2cc(-c3n[nH]c(=O)o3)cc(F)c2C(F)(F)F)C1 [Example 203, 5-[3-fluoro-5-({(1S)-1-[(1s,3R)-3-(methylamino)cyclobutyl]ethyl}amino)-4-(trifluoromethyl)phenyl]-1,3,4-oxadiazol-2(3H)-one hydrochloride]
11 nM	220 nM	C[C@H](Nc1cc(-c2n[nH]c(=O)o2)ccc1C(F)(F)F)C1CC2(CCNCC2)C1 [Example 142, 5-[3-{[(1S)-1-(7-azaspiro[3.5]nonan-2-yl)ethyl]amino}-4-(trifluoromethyl)phenyl]-1,3,4-oxadiazol-2(3H)-one hydrochloride]

Reference: patent US20220024921A1, “1,3,4-OXADIAZOLONE COMPOUND AND PHARMACEUTICAL” (NIPPON SHINYAKU CO., LTD., priority 2018, published 2022)
